Laboratory results published in the supplement of paper PMC11451515.

How the values were obtained:
Details in all cases: 48 h
P12-Ichikawa [1] = assay: cell viability relative to DMSO control; higher = less cytotoxic
Summary of the method: (§1)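 In 1536-well plates, 5 μl of leukemia cells were seeded per well: 500 cells/well for NOMO1 or SEM and 1000 cells/well for P12-Ichikawa. Each line had first been adapted for at least four passages in each medium. Library compounds in DMSO were pin-dosed at 11 threefold concentrations between 47 μM and 0.79 nM, and CellTiter-Glo One luminescence was read after 48 h at 37°C. Viability is a per-plate percentage relative to DMSO wells, with cell-free wells as background.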

SEM cells [2] = assay: as above
Summary of the method: as §1

NOMO1 [3] = assay: AUC of viability dose-response curve (% viability x log10 dose units); higher = less sensitive
Summary of the method: (§2)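 Medium-adapted leukemia cells in 1536-well plates, at 500 or 1000 cells/well, were incubated for 48 h at 37°C with library compounds in DMSO at 11 threefold doses from 47 μM to 0.79 nM. CellTiter-Glo One luminescence normalised per plate to DMSO and cell-free wells was fitted with a four-parameter log-logistic model over log10 doses. Area under the curve was integrated from this fit by trapezoidal rule, with curves beyond full viability scaled and failed quality-control curves removed.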

P12-Ichikawa [4] = assay: as above
Summary of the method: as §2

SEM cells [5] = assay: as above
Summary of the method: as §2

NOMO1 [6] = assay: cell viability relative to DMSO control; higher = less cytotoxic
Summary of the method: as §1

O=C(O)CC/C=C\CC[C@@H]1[C@@H](N2CCCCC2)[C@@H](O)C[C@@H]1OCc1ccc(-c2ccccc2)cc1
cell viability [%], HPLM + 10% dialyzed FBS
Details | P12-Ichikawa [1] | SEM cells [2]
0.000781 µM | 124 | 117
0.00234 µM | 131 | 131
0.00702 µM | 125 | 117
0.0211 µM | 126 | 136
0.0632 µM | 116 | 129
0.19 µM | 119 | 123
0.569 µM | 131 | 127
1.71 µM | 129 | 117
5.12 µM | 107 | 111
15.4 µM | 108 | 114
46.1 µM | 109 | 112

AUC of viability dose-response curve
Details | NOMO1 [3] | P12-Ichikawa [4] | SEM cells [5]
HPLM + 10% dialyzed FBS | 433 | 461 | 461
RPMI 5 mM glucose + 10% FBS | 441 | 457 | 456
RPMI 5 mM glucose + 10% dialyzed FBS | 457 | 455 | 467

NC(=O)Nc1cc(-c2cccc(F)c2)sc1C(=O)N[C@H]1CCCNC1
cell viability [%]
Details | NOMO1 [6] | P12-Ichikawa [1] | SEM cells [2]
HPLM + 10% dialyzed FBS, 0.000781 µM | 125 | 121 | 88.8
HPLM + 10% dialyzed FBS, 0.00234 µM | 102 | 124 | 62
HPLM + 10% dialyzed FBS, 0.00702 µM | 141 | 125 | 66.4
HPLM + 10% dialyzed FBS, 0.0211 µM | 107 | 122 | 46.3
HPLM + 10% dialyzed FBS, 0.0632 µM | 147 | 130 | 38.2
HPLM + 10% dialyzed FBS, 0.19 µM | 92.1 | 112 | 28.6
HPLM + 10% dialyzed FBS, 0.569 µM | 59.2 | 111 | 27.5
HPLM + 10% dialyzed FBS, 1.71 µM | 42 | 74 | 27.1
HPLM + 10% dialyzed FBS, 5.12 µM | 24.7 | 13.4 | 23.3
HPLM + 10% dialyzed FBS, 15.4 µM | 26.9 | 7.94 | 19
HPLM + 10% dialyzed FBS, 46.1 µM | 26.2 | 6.66 | 20.3
RPMI 5 mM glucose + 10% FBS, 0.000781 µM | – | – | 110
RPMI 5 mM glucose + 10% FBS, 0.00234 µM | – | – | 84.4
RPMI 5 mM glucose + 10% FBS, 0.00702 µM | – | – | 71.6
RPMI 5 mM glucose + 10% FBS, 0.0211 µM | – | – | 45.2
RPMI 5 mM glucose + 10% FBS, 0.0632 µM | – | – | 45
RPMI 5 mM glucose + 10% FBS, 0.19 µM | – | – | 37.6
RPMI 5 mM glucose + 10% FBS, 0.569 µM | – | – | 32.7
RPMI 5 mM glucose + 10% FBS, 1.71 µM | – | – | 27.7
RPMI 5 mM glucose + 10% FBS, 5.12 µM | – | – | 20.4
RPMI 5 mM glucose + 10% FBS, 15.4 µM | – | – | 11.3
RPMI 5 mM glucose + 10% FBS, 46.1 µM | – | – | 13.7
RPMI 5 mM glucose + 10% dialyzed FBS, 0.000781 µM | 121 | – | 98.9
RPMI 5 mM glucose + 10% dialyzed FBS, 0.00234 µM | 122 | – | 69.4
RPMI 5 mM glucose + 10% dialyzed FBS, 0.00702 µM | 136 | – | 52.4
RPMI 5 mM glucose + 10% dialyzed FBS, 0.0211 µM | 134 | – | 44.5
RPMI 5 mM glucose + 10% dialyzed FBS, 0.0632 µM | 136 | – | 32.2
RPMI 5 mM glucose + 10% dialyzed FBS, 0.19 µM | 139 | – | 26.3
RPMI 5 mM glucose + 10% dialyzed FBS, 0.569 µM | 81.7 | – | 25.5
RPMI 5 mM glucose + 10% dialyzed FBS, 1.71 µM | 33.2 | – | 21.3
RPMI 5 mM glucose + 10% dialyzed FBS, 5.12 µM | 24.4 | – | 16.7
RPMI 5 mM glucose + 10% dialyzed FBS, 15.4 µM | 21.6 | – | 12.4
RPMI 5 mM glucose + 10% dialyzed FBS, 46.1 µM | 23.4 | – | 10.6

AUC of viability dose-response curve
Details | NOMO1 [3] | P12-Ichikawa [4] | SEM cells [5]
HPLM + 10% dialyzed FBS | 314 | 345 | 188
RPMI 5 mM glucose + 10% FBS | 335 | 325 | 196
RPMI 5 mM glucose + 10% dialyzed FBS | 324 | 330 | 169

N#C[C@H](O[C@@H]1O[C@H](CO[C@@H]2O[C@H](CO)[C@@H](O)[C@H](O)[C@H]2O)[C@@H](O)[C@H](O)[C@H]1O)c1ccccc1
cell viability [%]
Details | NOMO1 [6] | P12-Ichikawa [1] | SEM cells [2]
HPLM + 10% dialyzed FBS, 0.000781 µM | 108 | 110 | 114
HPLM + 10% dialyzed FBS, 0.00234 µM | 96.9 | 106 | 103
HPLM + 10% dialyzed FBS, 0.00702 µM | 120 | 108 | 113
HPLM + 10% dialyzed FBS, 0.0211 µM | 115 | 102 | 127
HPLM + 10% dialyzed FBS, 0.0632 µM | 99.1 | 103 | 115
HPLM + 10% dialyzed FBS, 0.19 µM | 102 | 96.6 | 118
HPLM + 10% dialyzed FBS, 0.569 µM | 100 | 99.5 | 108
HPLM + 10% dialyzed FBS, 1.71 µM | 96.6 | 97.7 | 102
HPLM + 10% dialyzed FBS, 5.12 µM | 103 | 90.8 | 110
HPLM + 10% dialyzed FBS, 15.4 µM | 95.9 | 91.7 | 114
HPLM + 10% dialyzed FBS, 46.1 µM | 19.5 | 55.4 | 41.8
RPMI 5 mM glucose + 10% FBS, 0.000781 µM | 90.5 | 99.5 | 106
RPMI 5 mM glucose + 10% FBS, 0.00234 µM | 117 | 98.5 | 98.3
RPMI 5 mM glucose + 10% FBS, 0.00702 µM | 104 | 92.5 | 120
RPMI 5 mM glucose + 10% FBS, 0.0211 µM | 89.4 | 97.5 | 112
RPMI 5 mM glucose + 10% FBS, 0.0632 µM | 97.3 | 104 | 99.8
RPMI 5 mM glucose + 10% FBS, 0.19 µM | 93.5 | 99.5 | 102
RPMI 5 mM glucose + 10% FBS, 0.569 µM | 96.3 | 94.2 | 112
RPMI 5 mM glucose + 10% FBS, 1.71 µM | 84.5 | 88.4 | 94.8
RPMI 5 mM glucose + 10% FBS, 5.12 µM | 93.4 | 89.9 | 94.5
RPMI 5 mM glucose + 10% FBS, 15.4 µM | 85.1 | 94.5 | 95.7
RPMI 5 mM glucose + 10% FBS, 46.1 µM | 16 | 48.5 | 20.6
RPMI 5 mM glucose + 10% dialyzed FBS, 0.000781 µM | 106 | 98.6 | 97.4
RPMI 5 mM glucose + 10% dialyzed FBS, 0.00234 µM | 110 | 96.2 | 104
RPMI 5 mM glucose + 10% dialyzed FBS, 0.00702 µM | 103 | 95.6 | 97.4
RPMI 5 mM glucose + 10% dialyzed FBS, 0.0211 µM | 115 | 101 | 122
RPMI 5 mM glucose + 10% dialyzed FBS, 0.0632 µM | 109 | 97.6 | 99
RPMI 5 mM glucose + 10% dialyzed FBS, 0.19 µM | 96.2 | 86.1 | 99.7
RPMI 5 mM glucose + 10% dialyzed FBS, 0.569 µM | 101 | 90.6 | 97.5
RPMI 5 mM glucose + 10% dialyzed FBS, 1.71 µM | 97.6 | 89 | 101
RPMI 5 mM glucose + 10% dialyzed FBS, 5.12 µM | 98.1 | 82.9 | 91.4
RPMI 5 mM glucose + 10% dialyzed FBS, 15.4 µM | 88.8 | 87.3 | 92.2
RPMI 5 mM glucose + 10% dialyzed FBS, 46.1 µM | 9.62 | 31.8 | 15.3

AUC of viability dose-response curve
Details | NOMO1 [3] | P12-Ichikawa [4] | SEM cells [5]
HPLM + 10% dialyzed FBS | 454 | 454 | 462
RPMI 5 mM glucose + 10% FBS | 435 | 446 | 452
RPMI 5 mM glucose + 10% dialyzed FBS | 448 | 427 | 452

NC(=O)c1ccc2[nH]c(-c3ccc(Oc4ccc(Cl)cc4)cc3)nc2c1
SEM cells [2], HPLM + 10% dialyzed FBS
Details | cell viability [%]
0.000781 µM | 115
0.00234 µM | 113
0.00702 µM | 136
0.0211 µM | 121
0.0632 µM | 117
0.19 µM | 65.4
0.569 µM | 133
1.71 µM | 124
5.12 µM | 134
15.4 µM | 118
46.1 µM | 91.9

AUC of viability dose-response curve
Details | NOMO1 [3] | P12-Ichikawa [4] | SEM cells [5]
HPLM + 10% dialyzed FBS | 457 | 463 | 470
RPMI 5 mM glucose + 10% FBS | 472 | 454 | 446
RPMI 5 mM glucose + 10% dialyzed FBS | 475 | 453 | 463

Clc1ccc(COC(Cn2ccnc2)c2ccc(Cl)cc2Cl)c(Cl)c1 (centres undefined)
SEM cells [2], HPLM + 10% dialyzed FBS
Details | cell viability [%]
0.000781 µM | 121
0.00234 µM | 120
0.00702 µM | 112
0.0211 µM | 123
0.0632 µM | 104
0.19 µM | 115
0.569 µM | 114
1.71 µM | 124
5.12 µM | 99.3
15.4 µM | 109
46.1 µM | 70

AUC of viability dose-response curve
Details | NOMO1 [3] | P12-Ichikawa [4] | SEM cells [5]
HPLM + 10% dialyzed FBS | 425 | 452 | 462
RPMI 5 mM glucose + 10% FBS | 468 | 467 | 460
RPMI 5 mM glucose + 10% dialyzed FBS | 452 | 419 | 449

C[C@@H]1C[C@H]2[C@@H]3\C=C(C)/C4=C/C5=C(C[C@]4(C)[C@H]3[C@@H](O)C[C@]2(C)[C@@]1(O)C(=O)CO)C=N[N]5C6=CC=CC=C6
SEM cells [2], HPLM + 10% dialyzed FBS
Details | cell viability [%]
0.000781 µM | 143
0.00234 µM | 123
0.00702 µM | 112
0.0211 µM | 109
0.0632 µM | 101
0.19 µM | 71.2
0.569 µM | 66.9
1.71 µM | 64.9
5.12 µM | 72.3
15.4 µM | 57.7
46.1 µM | 36.4

AUC of viability dose-response curve
Details | NOMO1 [3] | P12-Ichikawa [4] | SEM cells [5]
HPLM + 10% dialyzed FBS | 425 | 308 | 296
RPMI 5 mM glucose + 10% FBS | 446 | 280 | 300
RPMI 5 mM glucose + 10% dialyzed FBS | 461 | 246 | 267

Nc1cccc2c1C(=O)N(C1CCC(=O)NC1=O)C2=O (centres undefined)
SEM cells [2], RPMI 5 mM glucose + 10% FBS
Details | cell viability [%]
0.000781 µM | 117
0.00234 µM | 126
0.00702 µM | 103
0.0211 µM | 98
0.0632 µM | 96.9
0.19 µM | 93.9
0.569 µM | 76.6
1.71 µM | 72.5
5.12 µM | 80.2
15.4 µM | 64.1
46.1 µM | 37.7

AUC of viability dose-response curve
Details | NOMO1 [3] | P12-Ichikawa [4] | SEM cells [5]
HPLM + 10% dialyzed FBS | 462 | 436 | 462
RPMI 5 mM glucose + 10% FBS | 452 | 448 | 349
RPMI 5 mM glucose + 10% dialyzed FBS | 466 | 450 | 388
